Converted amounts (≈) assume the structure as drawn. Like-named read-outs stand apart in the source and are kept apart here.
Columns and labels:
[1] = Within-patient comparison of steady-state trough concentrations (Ctrough,ss) with and without concomitant H2RA, pooled data from 11 clinical studies; format: in vivo, human; conditions: for Ctrough,ss Geometric Mean (Geometric CV%), Test / Ctrough,ss Geometric Mean (Geometric CV%), Reference: patients, dose normalized to 45 mg QD; for Ctrough,ss Geometric Mean (Geometric CV%), Test: dacomitinib co-administered with H2RA (at least 3 days); for Ctrough,ss Geometric Mean (Geometric CV%), Reference: dacomitinib without H2RA
Experimental: This analysis included data from 11 clinical studies. Patients in these studies who received continuous oral dosing schedule of dacomitinib at dose levels of 45 mg once daily (QD), 30 mg QD, 15 mg QD and 60 mg QD, with a cycle duration of 28 days, are included in the analysis dataset. All trials were conducted in accordance with the International Council on Harmonization Good Clinical Practice guidelines and the provisions of the Declaration of Helsinki. The institutional review board or independent ethics committee at each participating center approved the protocol. All patients provided written informed consent before enrollment.
Patients in the 11 studies who received continuous oral dosing schedule of dacomitinib at dose levels of 45 mg once daily (QD), 30 mg QD, 15 mg QD and 60 mg QD, with a cycle duration of 28 days, are included in the analysis dataset. […] PF-05199265 has been identified to have an inhibitory and selectivity profile similar to the parent molecule. For each patient, steady-state trough concentrations (Ctrough,ss) were defined as an observed concentration collected at the nominal predose (0 h) time point on Day 1 of Cycle 2 through Cycle 10 with at least 14 days of continuous dacomitinib dosing at one dose level. Ctrough,ss were dose normalized to 45 mg, calculated as Ctrough,ss times 45 mg/dose for the analysis and reporting.
The Ctrough,ss values were used to represent steady-state exposure in patients following administration of 45 mg QD dacomitinib.
The Ctrough,ss collected prior to any reported H2RA use or at least 14 days after the last reported date of H2RA use served as the dacomitinib without H2RA reference. Dacomitinib co-administered with H2RA as the comparator was defined as Ctrough,ss collected after the use of any reported H2RA continuously for at least 3 days. The H2RAs reported in these studies included cimetidine, famotidine, nizatidine and ranitidine.

[2] = Oral absorption PBPK model (GastroPlus ACAT) simulations and gastric pH parameter sensitivity analysis; design: species or system human; conditions: 45 mg oral
Description: (§1) PBPK modeling was used to evaluate the effect of changes in gastric pH on dacomitinib absorption. With physicochemical properties (e.g., Log P, pKa, mean precipitation time) and solubility data at different pH for dacomitinib, a two-compartment model coupled to the ACAT model was built using Gastroplus^TM version 9.7 (Simulation Plus, Inc., Lancaster, CA, USA) with default fasted gut physiology. Disposition PK parameters for dacomitinib were derived by initially fitting the PK data after intravenous (IV) administration from a study where the absolute bioavailability of dacomitinib was estimated by comparing oral to intravenous administration of dacomitinib in healthy volunteers.
The model that utilized the default physiological conditions of Gastroplus was used to simulate the plasma profiles for a 45 mg oral dose in healthy volunteers from the same study. […] The modified model was developed by optimizing the absorption scale factor (ASF) model based on the clinical PK data to reflect the prolonged Tmax of the plasma profile since all the systemic PK parameters were fixed after fitting the IV profile.
The model was validated using the mean plasma profiles of dacomitinib under 3 different conditions or treatments (fasted, fed, and PPI treatment using rabeprazole 40 mg administered QD for 7 days) following oral administration of a 45 mg dose in a clinical study in healthy volunteers to evaluate the food effect and effect of PPIs. In this study, PK samples were collected at the same nominal times of 0, 1, 2, 4, 6, 8, 12, 24, 48, 72, 96, 120, 144, 168, 192, 216 and 264 h post-dose. The mean plasma drug concentration–time profile of dacomitinib was obtained for each condition, namely fasted, fed and PPI treatment, and respective exposure parameters (Cmax and AUCinf) were derived from Gastroplus. The simulation was conducted using Gastroplus with the default physiological conditions of fasted or fed and by setting the gastric pH in the model to 6.0. This allowed for the simulation of the situations corresponding to fasted, fed and PPI treatment, respectively.
The gastric pH in the PBPK model was manipulated to enable the evaluation of a range of pH values from 1.0 to 6.0 during pharmacokinetic (PK) simulations. Parameter sensitivity analyses (PSAs) were performed on the PBPK model to assess the impact of pH variations from 1.0 to 5.0, which mimicked the effect of H2RAs on the absorption of dacomitinib.

[3] = design: method as in ref 26 = [26]; 26. US Food and Drug Administration (FDA) VIZIMPRO ® (Dacomitinib) Review Available online: https://www.accessdata.fda.gov/drugsatfda_docs/nda/2018/211288Orig1s000ChemR.pdf (accessed on 6 November 202); conditions: base; cited from earlier work
[4] = design: method as in ref 26 = [26]; 26. US Food and Drug Administration (FDA) VIZIMPRO ® (Dacomitinib) Review Available online: https://www.accessdata.fda.gov/drugsatfda_docs/nda/2018/211288Orig1s000ChemR.pdf (accessed on 6 November 202); conditions: cited from earlier work
[5] = design: method as in ref 26 = [26]; 26. US Food and Drug Administration (FDA) VIZIMPRO ® (Dacomitinib) Review Available online: https://www.accessdata.fda.gov/drugsatfda_docs/nda/2018/211288Orig1s000ChemR.pdf (accessed on 6 November 202); conditions: cited from earlier work; remark: listed apart in the source
[6] = healthy volunteers, cited from earlier work; for AUCinf Observed / Cmax Observed: 45 mg oral
[7] = Disposition PK parameters fitted to intravenous data from the absolute bioavailability study in healthy volunteers; format: in vivo, human; conditions: automatic estimation using PK Plus based on IV data from clinical study
Description: as §1

[8] = design: method as in ref 2 = [2]; 2. US Food and Drug Administration (FDA) VIZIMPRO ® (Dacomitinib) Prescribing Information Available online: https://www.accessdata.fda.gov/drugsatfda_docs/label/2018/211288s000lbl.pdf (accessed on 6 N); conditions: with 20 mL locally acting antacid (Maalox Maximum Strength, 400 mg/5 mL); cited from earlier work
[9] = co-administration with PPI (rabeprazole 40 mg QD for 7 days)
[10] = single 45 mg dose after 7 days of rabeprazole 40 mg

COc1cc2ncnc(Nc3ccc(F)c(Cl)c3)c2cc1NC(=O)/C=C/CN1CCCCC1 [dacomitinib]
Ctrough,ss Geometric Mean (Geometric CV%), Test [1]: 53.2 ng/mL | Ctrough,ss Geometric Mean (Geometric CV%), Test ([1]; listed as Dacomitinib): 53.2 (18.7) ng/mL | Ctrough,ss Geometric Mean (Geometric CV%), Reference [1]: 57.56 ng/mL | Ctrough,ss Geometric Mean (Geometric CV%), Reference ([1]; listed as Dacomitinib): 57.56 (8.4) ng/mL | Ctrough,ss Geometric Mean Ratio test/reference (90% CI) ([1]; with H2RA vs without H2RA, adjusted, linear mixed effects model): 85.88 (72.9, 101.11) % | Ratio of AUCinf (predicted-to-observed) ([2]; co-administration with PPI): 0.857 | Ratio of Cmax (predicted-to-observed) ([2]; co-administration with PPI): 0.940 | Ratio of AUCinf (predicted-to-observed) ([2]; fasted state): 1.00 | Ratio of Cmax (predicted-to-observed) ([2]; fasted state): 1.01 | Ratio of AUCinf (predicted-to-observed) ([2]; fed state): 1.07 | Ratio of Cmax (predicted-to-observed) ([2]; fed state): 0.952 | pKa [3]: 5.03 (base) | Solubility ([4]; pH 1.28): 10000 µg/mL (≈ 21300 µM) | Solubility ([4]; pH 4.71): 3700 µg/mL (≈ 7870 µM) | Solubility ([4]; pH 5.09): 340 µg/mL (≈ 723 µM) | Solubility ([4]; pH 5.17): 230 µg/mL (≈ 489 µM) | Solubility ([4]; pH 5.3): 160 µg/mL (≈ 340 µM) | Solubility ([4]; pH 6.13): 6 µg/mL (≈ 12.8 µM) | Solubility ([4]; pH 6.94): 1 µg/mL (≈ 2.13 µM) | LogP ([5]; cationic): 1.8 | LogP ([5]; neutral): 5.3 | AUCinf Observed [6, 9]: 715.96 ng·h/mL | Cmax Observed [6, 9]: 9.125 ng/mL | AUCinf Observed ([6]; fasted state): 1171 ng·h/mL | Cmax Observed ([6]; fasted state): 18.41 ng/mL | AUCinf Observed ([6]; fed state): 1163 ng·h/mL | Cmax Observed ([6]; fed state): 21.35 ng/mL | decrease of AUC ([6]; co-administration with multiple doses of rabeprazole (a PPI)): 39% | reduction of AUC0-96 [6, 10]: 39% | reduction of Cmax [6, 10]: 51% | K12 [7]: 0.033 h⁻¹ | K21 [7]: 0.038 h⁻¹ | V2 [7]: 19.018 L/kg | Vc [7]: 21.9 L/kg | clearance ([7]; human, plasma, two-compartment model, healthy volunteers): 602 mL/min | changes in dacomitinib concentrations [8]: did not cause clinically relevant changes

From paper PMC10819565, “Effects of H2-Receptor Antagonists on the Exposure of Dacomitinib” (Pharmaceutics, 2024)
